Test results reported in patent US20020111373A1, “Hydrochloride salt of a fused heterocyclic compound” (SANKYO COMPANY, LIMITED, priority 1999, published 2002).
≈ marks a conversion by molar mass, not a printed value.

How the values were obtained:
[1] = test system: spontaneously diabetic rats (ZDF/Gmi-fa/fa); test: Blood sugar lowering activity test in spontaneously diabetic rats; format: in vivo, rat; conditions: for Blood Sugar Level: male ZDF/Gmi-fa/fa rats, average of 6
Protocol: Male spontaneously diabetic rats (ZDF/Gmi-fa/fa) which were 8-10 weeks old were used.
The test compound was suspended in 0.5% CMC solution, and a dose of 0.33 mg/ml/kg was orally administered consecutively for 2 weeks under compulsion. The blood sugar level was measured in a conventional manner. Thus, the tail end (about 1 mm) of rat was cut, and the blood was collected with a hematocrit tube treated with heparin for anti-coagulation and centrifuged. The resultant plasma was measured with Glucoloader F (A&T).

[2] = Solubility experiment in 1st fluid of Japanese Pharmacopeia; format: physicochemical; conditions: 37° C.; for solubility at 1 h: pH 1.2, simulated gastric fluid, thermodynamic from solid, 40 mg in 200 ml 1st fluid of Japanese Pharmacopeia, HPLC, read-out: Solubility 1.0 hour later
Protocol: To 200 ml of the 1st fluid of Japanese Pharmacopeia (1000 ml solution made by mixing 2.0 g of sodium chloride with 7.0 ml of hydrochloric acid and water) were added 40 mg of Compound A or Compound B, and the mixture was stirred with a stirrer at 37° C. in a 300 ml conical beaker. One hour later, 10 ml of the sample were filtered through Acrodisk LC13 (PVDF, manufactured by German Science Co.). The initial 3 ml were discarded, and the following 7 ml were taken into a test tube. Of this sample, 5 ml were taken accurately with a whole pipette and added to 2 ml of methanol accurately measured in advance in a test tube.
The quantity was measured by HPLC and the solubility was decided from a calibration curve made according to the following procedure.
The calibration curve was made by preparing a methanolic standard solution of Compound A at a concentration of 400 μg/ml, 100 μg/ml and 20 μg/ml, mixing each 2 ml of the standard solution with 5 ml of the 1st fluid of Japanese Pharmacopeia and determined by HPLC.
Analytical column: L-column ODS (4.6 mm ID×15 cm, manufactured by Chemicals Evaluation Research Institute Japan)
Mobile phase: 0.01 mol/L acetic acid buffer solution (pH 5.0)/acetonitrile mixture (13:7)
Flow rate: about 1.0 ml/min.
Column temperature: 40° C.
Detector: ultraviolet absorptiometer (measuring wavelength: 290 nm)

[3] = 3 Days, 0.33 mg/ml/kg orally, consecutive dosing
[4] = 7 Days, 0.33 mg/ml/kg orally, consecutive dosing
[5] = 14 Days, 0.33 mg/ml/kg orally, consecutive dosing

| solubility at 1 h [2] | Compound | Blood Sugar Level ([1]; 0 Hour (baseline)) | Blood Sugar Level [1, 3] | Blood Sugar Level [1, 4] | Blood Sugar Level [1, 5] | hypoglycemic activity (comparison in words) ([1]; from Table 1, ZDF/Gmi-fa/fa rats, 0.33 mg/ml/kg orally for 2 weeks) | solubility (comparison in words) ([2]; from Table 2, 1st fluid of Japanese Pharmacopeia) |
| --- | --- | --- | --- | --- | --- | --- | --- |
| 86.4 µg/mL | COc1ccc2nc(COc3ccc(CC4SC(=O)NC4=O)cc3)n(C)c2c1.Cl (stereo not drawn) [Compound A, 5-[4-(6-methoxy-1-methyl-1H-benzimidazol-2-ylmethoxy)benzyl]thiazolidin-2,4-dione hydrochloride] | 456 mg/dL | 228 mg/dL | 206 mg/dL | 207 mg/dL | more excellent hypoglycemic activity than Compound B | markedly better solubility than Compound B |
| 41 µg/mL (≈ 103 µM) | COc1ccc2nc(COc3ccc(CC4SC(=O)NC4=O)cc3)n(C)c2c1 (stereo not drawn) [Compound B, 5-[4-(6-methoxy-1-methyl-1H-benzimidazol-2-ylmethoxy)benzyl]-thiazolidin-2,4-dione, reference compound] | 456 mg/dL | 379 mg/dL | 409 mg/dL | 535 mg/dL | – | – |
